Data: PubChem BioAssay AID1259407 (Chemical Carcinogenesis Research Information System (CCRIS), 2018)
Activity calls are given as the source filed them. The rule behind the calls is not given here.

Test system: CCRIS mutagenicity, Ames/micronucleus/aberration tests
Assay: CCRIS mutagenicity studies
[1] = Test System: AMES SALMONELLA TYPHIMURIUM, Strain/Indicator: TA98, Metabolic Activation: NONE, Method: STANDARD PLATE
[2] = Test System: AMES SALMONELLA TYPHIMURIUM, Strain/Indicator: TA100, Metabolic Activation: NONE, Method: STANDARD PLATE
[3] = Test System: AMES SALMONELLA TYPHIMURIUM, Strain/Indicator: TA1535, Metabolic Activation: NONE, Method: STANDARD PLATE
[4] = Test System: AMES SALMONELLA TYPHIMURIUM, Strain/Indicator: TA1537, Metabolic Activation: NONE, Method: STANDARD PLATE
[5] = Test System: AMES SALMONELLA TYPHIMURIUM, Strain/Indicator: TA1538, Metabolic Activation: NONE, Method: STANDARD PLATE
[6] = Test System: AMES SALMONELLA TYPHIMURIUM, Strain/Indicator: TA98, Metabolic Activation: NONE, Method: PREINCUBATION
[7] = Test System: AMES SALMONELLA TYPHIMURIUM, Strain/Indicator: TA100, Metabolic Activation: NONE, Method: PREINCUBATION

Cc1cc(S(=O)(=O)O)ccc1N
mutagenic call (Test System: AMES SALMONELLA TYPHIMURIUM, Strain/Indicator: TA98, Metabolic Activation: HAMSTER, LIVER, S-9, AROCLOR 1254, Method: STANDARD PLATE): inactive; negative
mutagenic call [1]: inactive; negative
mutagenic call (Test System: AMES SALMONELLA TYPHIMURIUM, Strain/Indicator: TA98, Metabolic Activation: RAT, LIVER, S-9, AROCLOR 1254, Method: STANDARD PLATE): inactive; negative
mutagenic call (Test System: AMES SALMONELLA TYPHIMURIUM, Strain/Indicator: TA100, Metabolic Activation: HAMSTER, LIVER, S-9, AROCLOR 1254, Method: STANDARD PLATE): inactive; negative
mutagenic call [2]: inactive; negative
mutagenic call (Test System: AMES SALMONELLA TYPHIMURIUM, Strain/Indicator: TA100, Metabolic Activation: RAT, LIVER, S-9, AROCLOR 1254, Method: STANDARD PLATE): inactive; negative
mutagenic call (Test System: AMES SALMONELLA TYPHIMURIUM, Strain/Indicator: TA1535, Metabolic Activation: HAMSTER, LIVER, S-9, AROCLOR 1254, Method: STANDARD PLATE): inactive; negative
mutagenic call [3]: inactive; negative
mutagenic call (Test System: AMES SALMONELLA TYPHIMURIUM, Strain/Indicator: TA1535, Metabolic Activation: RAT, LIVER, S-9, AROCLOR 1254, Method: STANDARD PLATE): inactive; negative
mutagenic call (Test System: AMES SALMONELLA TYPHIMURIUM, Strain/Indicator: TA1537, Metabolic Activation: HAMSTER, LIVER, S-9, AROCLOR 1254, Method: STANDARD PLATE): inactive; negative
mutagenic call [4]: inactive; negative
mutagenic call (Test System: AMES SALMONELLA TYPHIMURIUM, Strain/Indicator: TA1537, Metabolic Activation: RAT, LIVER, S-9, AROCLOR 1254, Method: STANDARD PLATE): inactive; negative
mutagenic call (Test System: AMES SALMONELLA TYPHIMURIUM, Strain/Indicator: TA1538, Metabolic Activation: HAMSTER, LIVER, S-9, AROCLOR 1254, Method: STANDARD PLATE): inactive; negative
mutagenic call [5]: inactive; negative
mutagenic call (Test System: AMES SALMONELLA TYPHIMURIUM, Strain/Indicator: TA1538, Metabolic Activation: RAT, LIVER, S-9, AROCLOR 1254, Method: STANDARD PLATE): inactive; negative
mutagenic call (Test System: MOUSE LYMPHOMA, Strain/Indicator: L5178Y (TK+/TK-), Metabolic Activation: NONE, Method: SUSPENSION/PLATE): inactive; negative. reevaluation of results: negative
mutagenic call (Test System: MOUSE LYMPHOMA, Strain/Indicator: L5178Y (TK+/TK-), Metabolic Activation: RAT, LIVER, S-9, AROCLOR 1254, Method: SUSPENSION/PLATE): active; positive. reevaluation of results: positive

OC[C@H](O)CCl
mutagenic call [6]: inactive; negative
mutagenic call (Test System: AMES SALMONELLA TYPHIMURIUM, Strain/Indicator: TA98, Metabolic Activation: RAT, LIVER, S-9, KANECHLOR 500, Method: PREINCUBATION): inactive; negative
mutagenic call [7]: active; positive
mutagenic call (Test System: AMES SALMONELLA TYPHIMURIUM, Strain/Indicator: TA100, Metabolic Activation: RAT, LIVER, S-9, KANECHLOR 500, Method: PREINCUBATION): inactive; negative
mutagenic call (Test System: AMES SALMONELLA TYPHIMURIUM, Strain/Indicator: TA100, Metabolic Activation: RAT, LIVER, S-9, PCB, Method: PREINCUBATION): active; positive

C=CCc1[c-]cccc1.C=CCc1[c-]cccc1.[Pt+2].c1ccc(P(c2ccccc2)c2ccccc2)cc1
mutagenic call (Test System: AMES SALMONELLA TYPHIMURIUM, Strain/Indicator: TA92, Metabolic Activation: NONE, Method: STANDARD PLATE): inactive; negative
mutagenic call [1]: active; positive
mutagenic call [2]: inactive; negative
mutagenic call (Test System: AMES SALMONELLA TYPHIMURIUM, Strain/Indicator: TA2410, Metabolic Activation: NONE, Method: STANDARD PLATE): inactive; negative

CN(C)CCCNc1c2ccccc2nc2c([N+](=O)[O-])cccc12
mutagenic call (Test System: AMES SALMONELLA TYPHIMURIUM, Strain/Indicator: TA98(1,8-DNP6), Metabolic Activation: NONE, Method: STANDARD PLATE): active; positive
mutagenic call (Test System: AMES SALMONELLA TYPHIMURIUM, Strain/Indicator: TA98(1,8-DNP6), Metabolic Activation: RAT, LIVER, S-9, Method: STANDARD PLATE): active; positive
mutagenic call (Test System: AMES SALMONELLA TYPHIMURIUM, Strain/Indicator: TA98(NR), Metabolic Activation: NONE, Method: STANDARD PLATE): active; positive
mutagenic call (Test System: AMES SALMONELLA TYPHIMURIUM, Strain/Indicator: TA98(NR), Metabolic Activation: RAT, LIVER, S-9, Method: STANDARD PLATE): active; positive
mutagenic call [1]: active; positive
mutagenic call (Test System: AMES SALMONELLA TYPHIMURIUM, Strain/Indicator: TA98, Metabolic Activation: RAT, LIVER, S-9, Method: STANDARD PLATE): active; positive
mutagenic call [2]: active; positive
mutagenic call [3]: inactive; negative
mutagenic call [4]: active; positive
mutagenic call (Test System: AMES SALMONELLA TYPHIMURIUM, Strain/Indicator: TA1537 PKM101, Metabolic Activation: NONE, Method: STANDARD PLATE): active; positive
mutagenic call [5]: active; positive
mutagenic call (Test System: CHINESE HAMSTER V-79, Strain/Indicator: V-79/6-THIOGUANINE, Metabolic Activation: NONE, Method: STANDARD PLATE): active; positive
mutagenic call (Test System: CHINESE HAMSTER V-79, Strain/Indicator: V-79/OUABAIN, Metabolic Activation: NONE, Method: STANDARD PLATE): inactive; negative
mutagenic call (Test System: Escherichia coli, Strain/Indicator: CC107 (G6 to G7 frameshifts), Metabolic Activation: None, Method: Modified preincubation): active; positive
mutagenic call (Test System: Escherichia coli, Strain/Indicator: CC108 (G6 to G5 frameshifts), Metabolic Activation: None, Method: Modified preincubation): active; positive
mutagenic call (Test System: Escherichia coli, Strain/Indicator: CC109 (CG5 to CG4 frameshifts), Metabolic Activation: None, Method: Modified preincubation): inactive; negative, investigators report as positive based on revertant frequency correcte
mutagenic call (Test System: Escherichia coli, Strain/Indicator: CC111 (A7 to A6 frameshifts), Metabolic Activation: None, Method: Modified preincubation): inactive; negative

CC(=O)c1cc(N)ccc1OCC(O)CNC(C)(C)C (stereo unspecified)
mutagenic call [6]: inactive; negative
mutagenic call (Test System: AMES SALMONELLA TYPHIMURIUM, Strain/Indicator: TA98, Metabolic Activation: RAT, LIVER, S-9, PHENOBARBITAL AND 5,6-BENZOFLAVONE (10 OR 50 µL/PLATE), Method: PREINCUBATION): inactive; negative
mutagenic call [7]: inactive; negative
mutagenic call (Test System: AMES SALMONELLA TYPHIMURIUM, Strain/Indicator: TA100, Metabolic Activation: RAT, LIVER, S-9, PHENOBARBITAL AND 5,6-BENZOFLAVONE (10 OR 50 µL/PLATE), Method: PREINCUBATION): inactive; negative
mutagenic call (Test System: AMES SALMONELLA TYPHIMURIUM, Strain/Indicator: TA1535, Metabolic Activation: NONE, Method: PREINCUBATION): inactive; negative
mutagenic call (Test System: AMES SALMONELLA TYPHIMURIUM, Strain/Indicator: TA1535, Metabolic Activation: RAT, LIVER, S-9, PHENOBARBITAL AND 5,6-BENZOFLAVONE (10 OR 50 µL/PLATE), Method: PREINCUBATION): inactive; negative
mutagenic call (Test System: AMES SALMONELLA TYPHIMURIUM, Strain/Indicator: TA1537, Metabolic Activation: NONE, Method: PREINCUBATION): inactive; negative
mutagenic call (Test System: AMES SALMONELLA TYPHIMURIUM, Strain/Indicator: TA1537, Metabolic Activation: RAT, LIVER, S-9, PHENOBARBITAL AND 5,6-BENZOFLAVONE (10 OR 50 µL/PLATE), Method: PREINCUBATION): inactive; negative
mutagenic call (Test System: E. COLI, Strain/Indicator: WP2 UVRA, Metabolic Activation: NONE, Method: PREINCUBATION): inactive; negative
mutagenic call (Test System: E. COLI, Strain/Indicator: WP2 UVRA, Metabolic Activation: RAT, LIVER, S-9, PHENOBARBITAL AND 5,6-BENZOFLAVONE, Method: PREINCUBATION): inactive; negative

CCN(CC)CCNC(=O)c1cc(Cl)c(N)cc1OC
mutagenic call (Test System: CHINESE HAMSTER V-79, Strain/Indicator: V-79 (HGPRT)/6-THIOGUANINE, Metabolic Activation: NONE): active; positive
mutagenic call (Test System: UDS HUMAN HEPATOCYTES, Strain/Indicator: THY INCORP, Metabolic Activation: NONE, Method: AUTORADIOGRAPHY): inactive; negative
mutagenic call (Test System: UDS RAT HEPATOCYTES, Strain/Indicator: THY INCORP, Metabolic Activation: NONE, Method: AUTORADIOGRAPHY): inactive; negative
